Reference: paper PMC11597817, “Modulation of Multispecific Transporters by Uncaria tomentosa Extract and Its Major Phytoconstituents” (Pharmaceutics, 2024)

Tests used:
HeLa = experiment: Antiproliferative MTT assay; format: cell-based, human; details: 30 μM pure natural product, 72 h
Experimental: (§1) For the determination of the antiproliferative properties of the prepared extract and selected alkaloids (isopteropodine, mitraphylline, and uncarine D), an MTT assay was applied on our […] cell panel (see Table S4). […] All were maintained in a minimal essential medium completed with 10% fetal bovine serum, 1% non-essential amino acids, and 1% penicillin–streptomycin at 37 °C in a humidified atmosphere containing 5% CO2. All cell lines were purchased from the European Collection of Cell Cultures (Salisbury, UK), except for SiHa and C33A, which were from the American Tissue Culture Collection, LGC Standards GmbH (Wesel, Germany). Cell culture media and supplements were obtained from Lonza Group Ltd. (Basel, Switzerland). Cells were seeded into 96-well plates (C33A 10,000/well, all others 5000/well); after overnight incubation, the test substances were added and incubated for another 72 h under cell-culturing conditions. Uncaria tomentosa extract and the alkaloids were tested in the 1–90 μg/mL and 1–30 μM ranges, respectively. Finally, 20 μL of 5 mg/mL MTT solution was added to each well and incubated for 4 h; the medium was discarded, and the precipitated formazan crystals were dissolved in DMSO for 60 min with shaking. The absorbance was determined using a microplate reader (SPECTROstar Nano, BMG Labtech GmbH). Two independent experiments were performed with five parallels for each condition. Cisplatin, a clinically used anticancer agent (Ebewe GmbH, Unterach, Austria), was included as a reference compound. Calculations were conducted using the GraphPad Prism 10.0 software (GraphPad Software Inc., San Diego, CA, USA).
(§2) Table S4 – Antiproliferative properties of Uncaria tomentosa extract, three natural products (isopteropodine, mitraphylline, and uncarine D) and the
(§3) reference agent cisplatin.
(§4) Cell line Uncaria tomentosa isopteropodine mitraphylline uncarine D [95% confidence
(§5) 1: The highest applied concentration was 90 μg/mL and 30 μM for the extract and the pure natural products, respectively.
(§6) 2: Inhibitions less than 20% compared to the untreated control were regarded as negligible and were not given numerically.

A2780 = experiment: Antiproliferative MTT assay; format: cell-based, human; details: 30 μM pure natural product, 72 h
Experimental: as §1, §2, §3, §4, §5, §6

SiHa = experiment: Antiproliferative MTT assay; format: cell-based, human; details: 72 h
Experimental: as §1, §2, §3, §4, §5, §6

MDA-MB-231 = experiment: Antiproliferative MTT assay; format: cell-based, human; details: 30 μM pure natural product, 72 h
Experimental: as §1, §2, §3, §4, §5, §6

HEK293-Mock = experiment: Antiproliferative MTT assay; format: cell-based, human; details: 72 h
Experimental: as §1, §2, §3, §4, §5, §6

T47D = experiment: Antiproliferative MTT assay; format: cell-based, human; details: 30 μM pure natural product, 72 h
Experimental: as §1, §2, §3, §4, §5, §6

C33A = experiment: Antiproliferative MTT assay; format: cell-based, human; details: 72 h
Experimental: as §1, §2, §3, §4, §5, §6

HEK293-Mock-B = experiment: Antiproliferative MTT assay; format: cell-based, human; details: 72 h
Experimental: as §1, §2, §3, §4, §5, §6

MCF7 = experiment: Antiproliferative MTT assay; format: cell-based, human; details: 30 μM pure natural product, 72 h
Experimental: as §1, §2, §3, §4, §5, §6

NIH/3T3 = experiment: Antiproliferative MTT assay; format: cell-based, murine; details: 72 h
Experimental: as §1, §2, §3, §4, §5, §6

OATP1B1 = test system: OATP1B1; set-up: method as in ref 75 (a number printed in a supplementary file, which may have a reference list of its own: not looked up in the article's list); details: cited from earlier work; for inhibition: OATP1B1/3
OATP1B3 = test system: OATP1B3; set-up: method as in ref 75 (a number printed in a supplementary file, which may have a reference list of its own: not looked up in the article's list); details: cited from earlier work; for inhibition: OATP1B1/3
HEK293-OCT1 = format: cell-based, human
Experimental: as §1, §2, §3, §4, §5, §6

HEK293-OCT2 = format: cell-based, human
Experimental: as §1, §2, §3, §4, §5, §6

HEK293-OATP2B1 = format: cell-based, human
Experimental: as §1, §2, §3, §4, §5, §6

HEK293-OATP1B3 = format: cell-based, human
Experimental: as §1, §2, §3, §4, §5, §6

HEK293-OAT1 = format: cell-based, human
Experimental: as §1, §2, §3, §4, §5, §6

SERT = test system: SERT; set-up: method as in ref 153 (a number printed in a supplementary file, which may have a reference list of its own: not looked up in the article's list); details: cited from earlier work
DAT = test system: DAT; set-up: method as in ref 153 (a number printed in a supplementary file, which may have a reference list of its own: not looked up in the article's list); details: cited from earlier work
NET = test system: NET; set-up: method as in ref 153 (a number printed in a supplementary file, which may have a reference list of its own: not looked up in the article's list); details: cited from earlier work
[1] = test system: pregnane X receptor (PXR); details: cited from earlier work
rNTCP = test system: rNTCP; set-up: method as in ref 157 (a number printed in a supplementary file, which may have a reference list of its own: not looked up in the article's list); details: transcription and expression; cited from earlier work
rMRP2 = test system: rMRP2; set-up: method as in ref 157 (a number printed in a supplementary file, which may have a reference list of its own: not looked up in the article's list); details: transcription and expression; cited from earlier work
rMRP1 = test system: rMRP1; set-up: method as in ref 156 (a number printed in a supplementary file, which may have a reference list of its own: not looked up in the article's list); details: transcription and expression; cited from earlier work
rMDR1a = test system: rMDR1a; set-up: method as in ref 157 (a number printed in a supplementary file, which may have a reference list of its own: not looked up in the article's list); details: transcription and expression; cited from earlier work
rMRP4 = test system: rMRP4; set-up: method as in ref 157 (a number printed in a supplementary file, which may have a reference list of its own: not looked up in the article's list); details: transcription and expression; cited from earlier work
Rat BSEP = test system: Rat BSEP; set-up: method as in ref 154 (a number printed in a supplementary file, which may have a reference list of its own: not looked up in the article's list); details: cited from earlier work
mouse MRP1 = test system: mouse MRP1; set-up: method as in ref 154 (a number printed in a supplementary file, which may have a reference list of its own: not looked up in the article's list); details: cited from earlier work
ABCG5/8 = test system: ABCG5/8; set-up: method as in ref 155 (a number printed in a supplementary file, which may have a reference list of its own: not looked up in the article's list); details: cited from earlier work
MDR1 = details: cited from earlier work
mBCRP = test system: mBCRP; set-up: method as in ref 154 (a number printed in a supplementary file, which may have a reference list of its own: not looked up in the article's list); details: cited from earlier work
[2] = read-out: cisplatin IC50 [95% confidence interval]

Compound: COC(=O)C1=CO[C@@H](C)[C@@H]2CN3CC[C@@]4(C(=O)Nc5ccccc54)[C@H]3C[C@H]12 [uncarine D]
- Cell growth inhibition at the highest concentration (% ± SEM) (HeLa): < 20%
- Cell growth inhibition at the highest concentration (% ± SEM) (A2780): < 20%
- Cell growth inhibition at the highest concentration (% ± SEM) (SiHa; 30 μM pure natural product): < 20%
- Cell growth inhibition at the highest concentration (% ± SEM) (MDA-MB-231): < 20%
- Cell growth inhibition at the highest concentration (% ± SEM) (HEK293-Mock; 30 μM pure natural product): < 20%
- Cell growth inhibition at the highest concentration (% ± SEM) (T47D): < 20%
- Cell growth inhibition at the highest concentration (% ± SEM) (C33A; 30 μM pure natural product): < 20%
- Cell growth inhibition at the highest concentration (% ± SEM) (HEK293-Mock-B; 30 μM pure natural product): < 20%
- Cell growth inhibition at the highest concentration (% ± SEM) (MCF7): < 20%
- Cell growth inhibition at the highest concentration (% ± SEM) (NIH/3T3; 30 μM pure natural product): < 20%

Compound: CC(C)C1=CC2=CC[C@@H]3[C@](C)(CCC[C@@]3(C)C(=O)O)[C@H]2CC1 [Abietic acid]
- Ki (OATP1B1; first value of OATP1B1/3 pair): 1.47 µM
- Ki (OATP1B3; second value of OATP1B1/3 pair): 4.08 µM

Compound: N.N.[Cl][Pt][Cl] [cisplatin, reference compound]
- IC50 (SiHa; [2]): 4.29 µM
- IC50 (HEK293-Mock; [2]): 19.5 µM
- IC50 (C33A; [2]): 5.85 µM
- IC50 (HEK293-Mock-B; [2]): 13.3 µM
- IC50 (NIH/3T3; [2]): 5.5 µM
- IC50 (HEK293-OCT1): 9.14 µM
- IC50 (HEK293-OCT2): 5.51 µM
- IC50 (HEK293-OATP2B1): 9.7 µM
- IC50 (HEK293-OATP1B3): 11.2 µM
- IC50 (HEK293-OAT1): 5.55 µM

Compound: CC(C)=CCC[C@](C)(O)[C@@H]1CC=C(C)CC1 [Alpha-bisbolol]
- inhibition (OATP1B1): < 50%
- inhibition (OATP1B3): < 50%

Compound: CC1(C)CCC2(C(=O)O)CCC3(C)C(=CCC4C5(C)CCC(O)C(C)(CO)C5CCC43C)C2C1 (stereo not drawn) [alpha-Hederagenin]
- IC50 (SERT): 0.00134 ± 4e-05 µM
- IC50 (DAT): 0.00109 ± 0.00012 µM
- IC50 (NET): 0.00015 ± 2e-05 µM

Compound: C=C[C@H]1CN2CC[C@@]3(C(=O)Nc4ccccc43)[C@@H]2C[C@@H]1/C(=C\OC)C(=O)OC [isocorynoxeine]
- PXR activation [1]: PXR activators

Compound: CC[C@H](CC[C@@H](C)[C@H]1CC[C@H]2[C@@H]3CC=C4C[C@@H](O)CC[C@]4(C)[C@H]3CC[C@]12C)C(C)C [Stigmast-5-en-3beta-ol]
- inhibition (OATP1B1): < 50%
- inhibition (OATP1B3): < 50%

Compound: O=C1CC(c2ccccc2)Oc2cc(O)cc(O)c21 (stereo not shown) [5,7-Dihydroxyflavanone]
- inhibition (OATP1B1): < 50%
- inhibition (OATP1B3): < 50%

Compound: COc1cc(O)cc(/C=C/c2ccccc2)c1 [Pinosylvin 3-(methyl ether)]
- inhibition (OATP1B1): < 50%
- inhibition (OATP1B3): < 50%

Compound: COC(=O)C1=CO[C@@H](C)[C@@H]2CN3CC[C@]4(C(=O)Nc5ccccc54)[C@@H]3C[C@H]12 [pteropodine]
- PXR activation [1]: PXR activators

Compound: CC1(C)C2CCC1(C)C(O)C2 (stereo not shown) [Borneol]
- Type of interaction (rNTCP): inhibited the transcription
- Type of interaction (rMRP2): inhibited the transcription
- Type of interaction (rMRP1): inhibited the transcription
- Type of interaction (rMDR1a): inhibited the transcription
- Type of interaction (rMRP4): inhibited the transcription

Compound: C=C[C@H]1CN2CC[C@]3(C(=O)Nc4ccccc43)[C@@H]2C[C@@H]1/C(=C\OC)C(=O)OC [corynoxeine]
- PXR activation [1]: PXR activators

Compound: CC[C@H](CC[C@@H](C)[C@H]1CC[C@H]2[C@@H]3CC=C4C[C@@H](O)CC[C@]4(C)[C@H]3CC[C@]12C)C(C)C [Beta-Sitosterol]
- Type of interaction (Rat BSEP): no substrate, no inhibitor
- Type of interaction (mouse MRP1): no substrate, no inhibitor
- Type of interaction (ABCG5/8): probably substrate
- Type of interaction (MDR1): no substrate, no inhibitor
- Type of interaction (mBCRP): no substrate, no inhibitor
